In BindingDB's records for patent US11130769 (Prelude Therapeutics, 2021):

Molecular target: Induced myeloid leukemia cell differentiation protein Mcl-1 (Homo sapiens, UniProt Q07820)
Assay: Fluorescence Polarization Competition Assay
Description: The assay was carried out in black half-area 96-well NBS plate (Corning), containing 15 nM of MCL-1 (BPS Bioscience), 5 nM of FITC-Bim and 3-fold serial diluted test compounds in a total volume of 50 μL of assay buffer (20 mM HEPES, 50 mM NaCl, 0.002% Tween 20, 1 mM TCEP, and 1% DMSO). The reaction plate was incubated for 1 hour at room temperature. The change of anisotropy is measured with an Envision multimode plate reader (PerkinElmer) at emission wavelength 535 nm. Fluorescence polarization was calculated in mP unit and the percentage inhibition was calculated by % inhibition=100×(mPDMSO−mP)/(mPDMSO−mPPC), in which mPDMSO is the DMSO control, and mPpc is the positive control. IC50 values were determined from a 10-point dose response curve by fitting the percent inhibition against compound concentration using the GraphPad Prism software

Induced myeloid leukemia cell differentiation protein Mcl-1, sequence (Q07820 whole entry): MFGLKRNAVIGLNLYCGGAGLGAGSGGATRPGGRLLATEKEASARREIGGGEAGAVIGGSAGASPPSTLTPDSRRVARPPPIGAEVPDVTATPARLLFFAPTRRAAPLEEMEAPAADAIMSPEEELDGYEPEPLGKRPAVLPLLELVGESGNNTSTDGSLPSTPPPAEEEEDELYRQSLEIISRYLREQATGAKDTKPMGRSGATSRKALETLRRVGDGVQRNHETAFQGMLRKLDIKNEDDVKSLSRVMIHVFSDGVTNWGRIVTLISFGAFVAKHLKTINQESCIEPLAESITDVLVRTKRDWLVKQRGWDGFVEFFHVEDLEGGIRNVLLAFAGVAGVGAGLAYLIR

SMILES | Ki
CN1C/C=C/[C@H](OC(=O)NC2CC2)[C@@H]2CC[C@H]2CN2C[C@@]3(CCCc4cc(Cl)ccc43)COc3ccc(cc32)S(=O)(=O)NC(=O)C1(C)C | < 300 nM
CN(C)CCN(C)C(=O)O[C@H]1/C=C/COC(C)(C)C(=O)NS(=O)(=O)c2ccc3c(c2)N(C[C@@H]2CC[C@H]21)C[C@@]1(CCOc2cc(Cl)ccc21)CO3 | < 300 nM
CCO[C@@H]1CCN(C(=O)O[C@H]2/C=C/COC(C)(C)C(=O)NS(=O)(=O)c3ccc4c(c3)N(C[C@@H]3CC[C@H]32)C[C@@]2(CCOc3cc(Cl)ccc32)CO4)C1 | < 300 nM
COC1CN(C(=O)O[C@H]2/C=C/COC(C)(C)C(=O)NS(=O)(=O)c3ccc4c(c3)N(C[C@@H]3CC[C@H]32)C[C@@]2(CCOc3cc(Cl)ccc32)CO4)C1 | < 300 nM
CN(C)[C@@H]1CCN(C(=O)O[C@H]2/C=C/COC(C)(C)C(=O)NS(=O)(=O)c3ccc4c(c3)N(C[C@@H]3CC[C@H]32)C[C@@]2(CCOc3cc(Cl)ccc32)CO4)C1 | < 300 nM
CN(C)C1CN(C(=O)O[C@H]2/C=C/COC(C)(C)C(=O)NS(=O)(=O)c3ccc4c(c3)N(C[C@@H]3CC[C@H]32)C[C@@]2(CCOc3cc(Cl)ccc32)CO4)C1 | < 300 nM

More lines, now with the values ahead:

Ki | SMILES
< 100 nM | CO[C@H]1/C=C/CN2CCC[C@H]2C(=O)NS(=O)(=O)c2ccc3c(c2)N(C[C@@H]2CC[C@H]21)C[C@@]1(CCCc2cc(Cl)ccc21)CO3 [US11130769, Ex. No. 100]
< 100 nM | CO[C@@H]1/C=C/CN(C)C(=O)NS(=O)(=O)c2ccc3c(c2)N(C[C@@H]2CC[C@H]21)C[C@@]1(CCCc2cc(Cl)ccc21)CO3 [US11130769, Ex. No. 108]
< 100 nM | CN(C)C(=O)O[C@@H]1/C=C/CN(C)C2(CCC2)C(=O)NS(=O)(=O)c2ccc3c(c2)N(C[C@@H]2CC[C@H]21)C[C@@]1(CCCc2cc(Cl)ccc21)CO3 [US11130769, Ex. No. 139]
< 300 nM | CN(C)C[C@H]1CCCN1C(=O)O[C@H]1/C=C/COC(C)(C)C(=O)NS(=O)(=O)c2ccc3c(c2)N(C[C@@H]2CC[C@H]21)C[C@@]1(CCCc2cc(Cl)ccc21)CO3 [US11130769, Ex. No. 169]
< 100 nM | CCOC(=O)N(C)[C@@H]1/C=C/COC(C)(C)C(=O)NS(=O)(=O)c2ccc3c(c2)N(C[C@@H]2CC[C@H]21)C[C@@]1(CCCc2cc(Cl)ccc21)CO3 [US11130769, Ex. No. 252]
